{"source": "ChEMBL document CHEMBL5465560", "about": "“Selectivity Literature for EUbOPEN Chemogenomic Library” (2024)", "key": {"[1]": {"biological_target": "T1, 5-hydroxytryptamine receptor 2C (Homo sapiens) (UniProt P28335)", "T1 sequence (whole entry)": "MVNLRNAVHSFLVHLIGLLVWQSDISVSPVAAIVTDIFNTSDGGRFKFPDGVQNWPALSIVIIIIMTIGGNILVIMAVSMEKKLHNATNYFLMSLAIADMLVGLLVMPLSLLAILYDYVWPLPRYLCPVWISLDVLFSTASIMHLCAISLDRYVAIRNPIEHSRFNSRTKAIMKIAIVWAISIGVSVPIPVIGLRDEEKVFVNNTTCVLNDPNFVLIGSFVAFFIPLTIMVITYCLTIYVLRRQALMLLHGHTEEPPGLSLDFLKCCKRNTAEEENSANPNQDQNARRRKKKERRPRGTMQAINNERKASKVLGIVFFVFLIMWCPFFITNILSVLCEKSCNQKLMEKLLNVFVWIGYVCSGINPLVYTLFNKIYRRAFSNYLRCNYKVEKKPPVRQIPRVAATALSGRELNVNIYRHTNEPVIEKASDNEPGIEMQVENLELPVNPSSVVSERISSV", "experiment": "Selectivity interaction (GPCR panel (PDSP screen)) EUB0000311b HTR2C", "details": "at 10 µM"}, "[2]": {"biological_target": "Ephrin type-A receptor 5 (Homo sapiens) (UniProt P54756)", "experiment": "Selectivity interaction (KinomeScan (DiscoverX)) EUB0001049a EPHA5", "details": "at 1 µM"}, "[3]": {"biological_target": "High affinity nerve growth factor receptor (Homo sapiens, UniProt P04629)", "experiment": "Selectivity interaction (KinomeScan (DiscoverX)) EUB0000666a NTRK1", "details": "at 10 µM"}, "[4]": {"biological_target": "Histone-lysine N-methyltransferase PRDM9 (Homo sapiens) (UniProt Q9NQV7)", "details": "at 10 µM"}, "[5]": {"biological_target": "Cyclin-dependent kinase 20 (Homo sapiens) (UniProt Q8IZL9)", "experiment": "Selectivity interaction (Kinase panel (KiNativ target engagement assay in Jurkat cells)) EUB0001635a CDK20", "assay_type": "cell-based", "details": "Selectivity number of off-targets 0.0, Selectivity number of targets 233.0, Source Knowledge https://www.sciencedirect.com/science/article/pii/S2451945619300674?via%3Dihub, at 1 µM"}, "[6]": {"biological_target": "DNA (cytosine-5)-methyltransferase 3A (Homo sapiens) (UniProt Q9Y6K1)", "sequence (Q9Y6K1 whole entry, looked up, the tested form may be a part)": "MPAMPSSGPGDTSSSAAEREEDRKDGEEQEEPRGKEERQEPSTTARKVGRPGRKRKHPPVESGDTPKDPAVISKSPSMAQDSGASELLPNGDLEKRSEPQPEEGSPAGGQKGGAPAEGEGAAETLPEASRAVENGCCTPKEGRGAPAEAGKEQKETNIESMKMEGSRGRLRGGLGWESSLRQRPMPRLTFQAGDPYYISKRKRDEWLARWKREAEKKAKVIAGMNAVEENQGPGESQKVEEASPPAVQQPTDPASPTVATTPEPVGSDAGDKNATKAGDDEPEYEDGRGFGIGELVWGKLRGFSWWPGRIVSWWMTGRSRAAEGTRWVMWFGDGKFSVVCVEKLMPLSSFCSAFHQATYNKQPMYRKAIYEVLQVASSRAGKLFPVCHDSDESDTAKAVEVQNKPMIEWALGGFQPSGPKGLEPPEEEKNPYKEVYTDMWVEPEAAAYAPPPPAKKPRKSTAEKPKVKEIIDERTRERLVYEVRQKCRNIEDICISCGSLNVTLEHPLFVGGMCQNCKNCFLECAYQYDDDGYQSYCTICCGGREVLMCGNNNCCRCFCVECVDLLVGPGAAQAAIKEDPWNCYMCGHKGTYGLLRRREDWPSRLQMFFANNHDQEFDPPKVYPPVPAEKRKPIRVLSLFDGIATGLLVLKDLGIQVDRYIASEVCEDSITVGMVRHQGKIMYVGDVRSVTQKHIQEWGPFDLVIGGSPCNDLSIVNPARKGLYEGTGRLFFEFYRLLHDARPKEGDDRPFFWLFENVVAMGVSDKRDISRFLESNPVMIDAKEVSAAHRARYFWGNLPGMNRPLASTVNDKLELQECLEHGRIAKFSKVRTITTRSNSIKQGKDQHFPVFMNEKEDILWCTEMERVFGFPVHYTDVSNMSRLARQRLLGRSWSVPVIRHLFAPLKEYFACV", "experiment": "Selectivity interaction (PWWP, WD40, and Tudor domain panel (DSLS measurements, literature)) EUB0000270b DNMT3A"}, "[7]": {"biological_target": "T2, Ephrin type-B receptor 2 (Homo sapiens) (UniProt P29323)", "T2 sequence (whole entry)": "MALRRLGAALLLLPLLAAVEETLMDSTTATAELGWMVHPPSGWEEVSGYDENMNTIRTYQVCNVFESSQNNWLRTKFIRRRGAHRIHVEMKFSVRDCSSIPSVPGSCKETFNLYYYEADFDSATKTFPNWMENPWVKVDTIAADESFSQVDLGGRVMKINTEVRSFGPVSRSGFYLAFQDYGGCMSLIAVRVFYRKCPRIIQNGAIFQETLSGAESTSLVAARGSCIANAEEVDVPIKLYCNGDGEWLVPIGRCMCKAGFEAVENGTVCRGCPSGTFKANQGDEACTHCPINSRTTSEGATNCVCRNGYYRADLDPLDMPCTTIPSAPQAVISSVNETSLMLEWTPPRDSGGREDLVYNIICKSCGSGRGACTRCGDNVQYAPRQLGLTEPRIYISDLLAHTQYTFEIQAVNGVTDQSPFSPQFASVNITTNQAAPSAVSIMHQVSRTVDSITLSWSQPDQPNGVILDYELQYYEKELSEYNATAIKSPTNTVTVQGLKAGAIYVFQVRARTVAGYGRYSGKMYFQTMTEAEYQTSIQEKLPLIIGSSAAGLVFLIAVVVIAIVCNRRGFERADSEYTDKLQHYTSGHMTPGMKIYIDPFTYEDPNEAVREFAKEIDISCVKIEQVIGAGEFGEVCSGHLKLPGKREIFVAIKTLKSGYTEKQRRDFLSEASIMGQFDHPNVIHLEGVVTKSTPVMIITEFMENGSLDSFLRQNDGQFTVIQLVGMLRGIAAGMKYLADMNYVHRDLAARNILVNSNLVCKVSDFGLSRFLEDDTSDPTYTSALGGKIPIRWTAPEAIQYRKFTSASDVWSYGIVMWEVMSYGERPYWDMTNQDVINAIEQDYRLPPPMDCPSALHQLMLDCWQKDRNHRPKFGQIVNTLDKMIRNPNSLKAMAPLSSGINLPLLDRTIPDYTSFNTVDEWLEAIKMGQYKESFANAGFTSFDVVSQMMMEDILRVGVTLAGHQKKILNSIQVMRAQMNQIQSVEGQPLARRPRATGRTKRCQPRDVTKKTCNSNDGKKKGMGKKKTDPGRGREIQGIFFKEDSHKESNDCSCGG", "experiment": "Selectivity interaction (Kinase panel (Invitrogen)) EUB0000639a EPHB2", "details": "at 200 nM"}, "[8]": {"biological_target": "[Pyruvate dehydrogenase (acetyl-transferring)] kinase isozyme 1, mitochondrial (Homo sapiens, UniProt Q15118)", "experiment": "Selectivity interaction (ActivX KiNativ screen (kinase selectivity in THP-1 cell lysates)) EUB0000639a PDK1", "assay_type": "subcellular", "details": "lysate"}, "[9]": {"biological_target": "MAP kinase-interacting serine/threonine-protein kinase 1 (Homo sapiens) (UniProt Q9BUB5)", "experiment": "Selectivity interaction (Kinase panel (Invitrogen)) EUB0000639a MKNK1", "details": "at 200 nM"}, "[10]": {"biological_target": "Mitogen-activated protein kinase 11 (Homo sapiens) (UniProt Q15759)", "sequence (Q15759 whole entry)": "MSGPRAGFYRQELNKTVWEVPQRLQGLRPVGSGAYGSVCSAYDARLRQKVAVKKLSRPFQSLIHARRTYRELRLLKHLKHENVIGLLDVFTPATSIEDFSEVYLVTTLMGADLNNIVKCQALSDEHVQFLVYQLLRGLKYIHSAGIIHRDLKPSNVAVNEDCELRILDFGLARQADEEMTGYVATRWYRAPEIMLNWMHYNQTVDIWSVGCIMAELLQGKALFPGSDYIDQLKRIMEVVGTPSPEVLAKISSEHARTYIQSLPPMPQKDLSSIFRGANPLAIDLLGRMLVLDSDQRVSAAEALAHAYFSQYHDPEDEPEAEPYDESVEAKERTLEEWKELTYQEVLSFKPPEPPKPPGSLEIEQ", "experiment": "Selectivity interaction (KinomeScan (DiscoverX)) EUB0000595a MAPK11", "details": "at 10 µM"}, "[11]": {"biological_target": "Leukocyte tyrosine kinase receptor (Homo sapiens, UniProt P29376)", "sequence (P29376 whole entry)": "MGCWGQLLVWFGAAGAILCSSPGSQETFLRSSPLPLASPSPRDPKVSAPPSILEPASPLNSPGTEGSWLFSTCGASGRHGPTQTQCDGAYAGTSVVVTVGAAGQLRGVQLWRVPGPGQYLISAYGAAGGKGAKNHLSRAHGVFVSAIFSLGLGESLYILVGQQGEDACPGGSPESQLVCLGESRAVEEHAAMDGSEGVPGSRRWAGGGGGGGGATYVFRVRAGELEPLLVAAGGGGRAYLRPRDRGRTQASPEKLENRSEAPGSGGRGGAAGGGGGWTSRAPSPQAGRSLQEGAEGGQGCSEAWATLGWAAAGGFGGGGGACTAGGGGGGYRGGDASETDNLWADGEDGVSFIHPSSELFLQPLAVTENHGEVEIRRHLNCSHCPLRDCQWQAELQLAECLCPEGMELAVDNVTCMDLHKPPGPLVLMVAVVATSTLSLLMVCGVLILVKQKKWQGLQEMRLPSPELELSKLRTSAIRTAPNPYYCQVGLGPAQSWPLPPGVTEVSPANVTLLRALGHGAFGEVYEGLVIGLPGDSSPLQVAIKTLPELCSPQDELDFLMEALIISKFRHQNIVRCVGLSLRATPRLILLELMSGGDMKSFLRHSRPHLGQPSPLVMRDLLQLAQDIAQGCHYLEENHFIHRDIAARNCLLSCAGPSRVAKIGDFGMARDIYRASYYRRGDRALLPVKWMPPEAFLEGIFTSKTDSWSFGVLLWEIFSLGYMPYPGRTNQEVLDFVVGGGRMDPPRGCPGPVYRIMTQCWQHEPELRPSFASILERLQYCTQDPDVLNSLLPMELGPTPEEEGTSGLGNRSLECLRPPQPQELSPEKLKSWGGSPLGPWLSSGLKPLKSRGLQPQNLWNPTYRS", "experiment": "Selectivity interaction (KinomeScan (DiscoverX)) EUB0000092b LTK", "details": "at 10 µM"}, "[12]": {"biological_target": "Cyclin-dependent kinase 3 (Homo sapiens) (UniProt Q00526)", "sequence (Q00526 whole entry, looked up)": "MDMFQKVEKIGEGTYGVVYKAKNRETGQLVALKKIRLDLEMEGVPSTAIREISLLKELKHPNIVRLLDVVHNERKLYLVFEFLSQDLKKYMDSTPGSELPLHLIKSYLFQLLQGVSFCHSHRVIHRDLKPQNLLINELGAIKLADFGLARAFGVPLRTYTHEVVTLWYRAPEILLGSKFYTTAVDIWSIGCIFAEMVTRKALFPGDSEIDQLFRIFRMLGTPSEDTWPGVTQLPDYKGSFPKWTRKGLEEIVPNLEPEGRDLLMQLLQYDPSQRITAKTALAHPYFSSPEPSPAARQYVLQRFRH", "experiment": "Selectivity interaction (Ambit KINOMEscan and KiNATiv profiling in Jurkat cells) EUB0000090b CDK3", "assay_type": "cell-based", "details": "at 1 µM"}, "[13]": {"biological_target": "Mitogen-activated protein kinase 6 (Homo sapiens) (UniProt Q16659)", "sequence (Q16659 whole entry)": "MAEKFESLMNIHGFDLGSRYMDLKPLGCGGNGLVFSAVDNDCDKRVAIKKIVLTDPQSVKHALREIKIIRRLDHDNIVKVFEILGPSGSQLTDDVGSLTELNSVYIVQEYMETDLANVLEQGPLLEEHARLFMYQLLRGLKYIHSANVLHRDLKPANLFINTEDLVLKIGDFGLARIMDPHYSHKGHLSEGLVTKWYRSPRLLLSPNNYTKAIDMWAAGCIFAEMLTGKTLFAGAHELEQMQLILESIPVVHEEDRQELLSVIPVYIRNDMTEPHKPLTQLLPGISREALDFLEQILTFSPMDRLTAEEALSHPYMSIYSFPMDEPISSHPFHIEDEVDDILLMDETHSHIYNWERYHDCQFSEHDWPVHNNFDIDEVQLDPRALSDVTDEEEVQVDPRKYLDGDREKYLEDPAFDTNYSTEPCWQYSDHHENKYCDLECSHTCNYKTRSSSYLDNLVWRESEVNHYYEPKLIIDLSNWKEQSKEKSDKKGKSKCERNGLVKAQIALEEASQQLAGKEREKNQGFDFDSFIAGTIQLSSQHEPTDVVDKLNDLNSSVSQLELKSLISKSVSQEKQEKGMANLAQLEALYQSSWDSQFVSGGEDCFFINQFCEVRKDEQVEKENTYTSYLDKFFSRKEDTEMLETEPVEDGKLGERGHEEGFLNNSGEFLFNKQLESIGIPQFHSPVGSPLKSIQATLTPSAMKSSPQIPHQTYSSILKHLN", "experiment": "Selectivity interaction (KinomeScan (DiscoverX)) EUB0000045b MAPK6"}, "[14]": {"biological_target": "Cyclin-dependent kinase 17 (Homo sapiens) (UniProt Q00537)", "sequence (Q00537 whole entry, looked up)": "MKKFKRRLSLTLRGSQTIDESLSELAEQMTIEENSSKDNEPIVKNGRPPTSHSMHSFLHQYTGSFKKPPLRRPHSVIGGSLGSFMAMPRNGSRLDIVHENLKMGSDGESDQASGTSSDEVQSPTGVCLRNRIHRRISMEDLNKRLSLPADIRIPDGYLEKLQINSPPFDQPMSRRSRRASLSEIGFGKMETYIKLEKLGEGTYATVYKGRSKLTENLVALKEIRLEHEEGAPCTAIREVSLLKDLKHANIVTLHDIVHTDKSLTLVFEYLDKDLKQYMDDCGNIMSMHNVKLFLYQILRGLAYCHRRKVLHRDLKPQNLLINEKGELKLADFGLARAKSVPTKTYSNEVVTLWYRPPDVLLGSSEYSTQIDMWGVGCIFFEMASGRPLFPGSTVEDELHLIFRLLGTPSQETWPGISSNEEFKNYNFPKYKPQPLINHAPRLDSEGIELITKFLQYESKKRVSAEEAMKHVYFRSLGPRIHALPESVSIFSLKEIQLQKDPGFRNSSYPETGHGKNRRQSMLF", "experiment": "Selectivity interaction (KinomeScan (DiscoverX)) EUB0000045b CDK17"}, "[15]": {"tested_on": "Mast/stem cell growth factor receptor Kit (Homo sapiens), P10721 [V559D]", "details": "at 10 µM"}, "[16]": {"biological_target": "Dual specificity mitogen-activated protein kinase kinase 1 (Homo sapiens, UniProt Q02750)", "experiment": "Selectivity interaction (KinomeScan (DiscoverX)) EUB0000607a MAP2K1", "details": "at 10 µM"}, "[17]": {"biological_target": "Rho-associated protein kinase 2 (Homo sapiens, UniProt O75116)", "sequence (O75116 whole entry, looked up)": "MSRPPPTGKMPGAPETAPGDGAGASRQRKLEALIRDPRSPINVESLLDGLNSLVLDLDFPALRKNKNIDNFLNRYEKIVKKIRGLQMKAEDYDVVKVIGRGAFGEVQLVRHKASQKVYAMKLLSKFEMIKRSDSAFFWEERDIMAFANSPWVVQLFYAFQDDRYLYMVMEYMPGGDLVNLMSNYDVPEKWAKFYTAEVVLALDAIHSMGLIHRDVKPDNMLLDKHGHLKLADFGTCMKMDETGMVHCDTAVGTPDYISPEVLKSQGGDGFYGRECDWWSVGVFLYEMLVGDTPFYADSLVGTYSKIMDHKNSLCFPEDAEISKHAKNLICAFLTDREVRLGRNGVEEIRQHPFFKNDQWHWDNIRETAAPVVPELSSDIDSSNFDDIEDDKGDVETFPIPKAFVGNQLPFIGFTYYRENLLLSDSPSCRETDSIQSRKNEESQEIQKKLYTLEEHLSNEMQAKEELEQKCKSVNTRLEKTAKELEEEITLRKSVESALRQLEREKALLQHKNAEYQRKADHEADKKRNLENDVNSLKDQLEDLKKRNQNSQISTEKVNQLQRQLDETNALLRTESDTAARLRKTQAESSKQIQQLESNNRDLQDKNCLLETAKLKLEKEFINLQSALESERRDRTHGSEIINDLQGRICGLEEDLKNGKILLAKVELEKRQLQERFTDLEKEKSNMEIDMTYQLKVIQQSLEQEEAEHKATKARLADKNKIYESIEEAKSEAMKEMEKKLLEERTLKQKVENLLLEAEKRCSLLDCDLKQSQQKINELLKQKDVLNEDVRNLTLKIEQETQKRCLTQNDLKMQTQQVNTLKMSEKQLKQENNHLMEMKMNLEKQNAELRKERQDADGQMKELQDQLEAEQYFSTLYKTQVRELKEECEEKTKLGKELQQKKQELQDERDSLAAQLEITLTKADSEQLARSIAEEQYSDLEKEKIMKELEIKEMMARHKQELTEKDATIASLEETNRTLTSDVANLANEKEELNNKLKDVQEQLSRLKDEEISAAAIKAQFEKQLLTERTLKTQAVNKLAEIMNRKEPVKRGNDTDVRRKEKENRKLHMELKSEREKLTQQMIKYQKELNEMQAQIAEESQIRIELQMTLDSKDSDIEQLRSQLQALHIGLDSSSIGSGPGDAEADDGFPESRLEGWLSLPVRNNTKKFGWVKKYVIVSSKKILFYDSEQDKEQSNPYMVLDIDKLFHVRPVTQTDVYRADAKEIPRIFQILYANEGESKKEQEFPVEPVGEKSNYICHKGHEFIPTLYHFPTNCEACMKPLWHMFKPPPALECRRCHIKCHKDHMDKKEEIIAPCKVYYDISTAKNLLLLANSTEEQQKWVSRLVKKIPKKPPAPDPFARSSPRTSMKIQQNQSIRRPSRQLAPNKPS", "experiment": "Selectivity interaction (ProQinase) EUB0000171b ROCK2"}}, "data": [{"smiles": "CCc1ccccc1C(=O)Nc1n[nH]c2c(C)c(F)c(C3C(C#N)=C(C)N(C)C(C)=C3C#N)cc12", "note": "[BAY-3827]", "values": [{"measurement": "% of inhibition", "setting": "[1]", "value": 20, "unit": "%"}]}, {"smiles": "COc1cc(Nc2nc(C)cc(-c3cnn4nc(OC)ccc34)n2)cc(C(F)(F)F)c1", "values": [{"measurement": "% of control", "setting": "[2]", "value": 96, "unit": "%"}]}, {"smiles": "O=C(NOC[C@H](O)CO)c1ccc(F)c(F)c1Nc1ccc(I)cc1F", "values": [{"measurement": "% of control", "setting": "[3]", "value": 100, "unit": "%"}]}, {"smiles": "CNCCN1CCC(c2cc(CN(C)C(=O)c3cccc(Oc4ccccc4)c3)ccn2)CC1", "values": [{"measurement": "% activity", "setting": "[4]", "value": "> 90", "unit": "%"}]}, {"smiles": "C=CC(=O)Nc1ccc(C(=O)Nc2[nH]nc3c2CN(C(=O)N[C@H](CN(C)C)c2ccccc2)C3(C)C)cc1", "values": [{"measurement": "% of engagement", "setting": "[5]", "value": 4.7, "unit": "%"}]}, {"smiles": "Cc1cc(CN)cc(C)c1-c1ncn(C)c1-c1cncn1C", "values": [{"measurement": "dTagg", "setting": "[6]", "value": -0.1, "unit": "K"}]}, {"smiles": "CC[C@@H]1[C@H](F)C(=O)N[C@@H]1COc1nccc2cc(C(N)=O)c(OC)cc12", "note": "[ZIMLOVISERTIB]", "values": [{"measurement": "% of inhibition", "setting": "[7]", "value": 0.413, "unit": "%"}, {"measurement": "% of inhibition", "setting": "[8]; at 0.01 µM", "value": 1.3, "unit": "%"}, {"measurement": "% of inhibition", "setting": "[8]; at 0.04 µM", "value": 12.1, "unit": "%"}, {"measurement": "% of inhibition", "setting": "[8]; at 0.2 µM", "value": 12.1, "unit": "%"}, {"measurement": "% of inhibition", "setting": "[8]; at 1 µM", "value": 12.5, "unit": "%"}, {"measurement": "% of inhibition", "setting": "[8]; at 5 µM", "value": 28.1, "unit": "%"}, {"measurement": "% of inhibition", "setting": "[9]", "value": 46.2, "unit": "%"}]}, {"smiles": "COCC(=O)NC/C=C/c1ccc2ncnc(Nc3ccc(Oc4ccc(C)nc4)c(C)c3)c2c1", "note": "[CP-724714]", "values": [{"measurement": "% of control", "setting": "[10]", "value": 100, "unit": "%"}]}, {"smiles": "CCC(=O)N1CCN(c2ccc(-n3c(=O)ccc4cnc5ccc(-c6cnc7ccccc7c6)cc5c43)cc2C(F)(F)F)CC1", "values": [{"measurement": "% of control", "setting": "[11]", "value": 77, "unit": "%"}]}, {"smiles": "CN(C)C/C=C/C(=O)Nc1ccc(C(=O)N2CCCC(Nc3ncc(Cl)c(-c4c[nH]c5ccccc45)n3)C2)cc1", "note": "(centres undefined)", "values": [{"measurement": "% of control", "setting": "[12]", "value": 97, "unit": "%"}]}, {"smiles": "C=CC(=O)Nc1cc(-n2c(=O)ccc3cnc4ccc(-c5ccc(NS(C)(=O)=O)cc5)cc4c32)ccc1C", "values": [{"measurement": "% of control", "setting": "[13]; at 1 µM", "value": 82, "unit": "%"}, {"measurement": "% of control", "setting": "[13]; at 10 µM", "value": 100, "unit": "%"}, {"measurement": "% of control", "setting": "[14]; at 1 µM", "value": 100, "unit": "%"}, {"measurement": "% of control", "setting": "[14]; at 10 µM", "value": 95, "unit": "%"}]}, {"smiles": "Cc1cc([C@@H](C)Nc2ccccc2C(=O)O)c2nc(N3CCOCC3)cc(=O)n2c1", "note": "[AZD-6482]", "values": [{"measurement": "% of control", "setting": "[15]", "value": 91, "unit": "%"}]}, {"smiles": "CNC(=O)Nc1ccc(-c2nc(N3CC4CCC(C3)O4)c3cnn(C4CCC5(CC4)OCCO5)c3n2)cc1", "values": [{"measurement": "% of control", "setting": "[16]", "value": 100, "unit": "%"}]}, {"smiles": "C=CC(=O)Nc1cccc(C(=O)Nc2ccc(Nc3cc(-c4[nH]c(SC)nc4C)ccn3)cc2)c1", "values": [{"measurement": "% of control", "setting": "[17]; at 1 µM", "value": 95, "unit": "%"}, {"measurement": "% of control", "setting": "[17]; at 5 µM", "value": 75, "unit": "%"}]}]}
